Where two headings read alike, the source gives them in different places.
Tests used:
Vaccinia virus = system: Vaccinia virus; set-up: species or system fertile eggs; conditions: various concentrations
Herpes virus [1] = system: Herpes virus
Influenza PR 8 virus = test: Influenza PR 8 in mice, oral; schedule by table; late read day 6 (Table 37), 7 (33, 36), 8 (32, 35, 47), 10 (38); control fraction 18/20 (Table 32), 19/20 (Table 35), else 100%; assay type: in vivo, mouse
Herpes virus [2] = test: Herpes virus in chicken eggs, single dose 24 hours pre-infection; assay type: in vivo, chick embryo
[3] = system: Influenza B Massachusetts virus; test: Influenza B Mass. in mice, oral; late read day 5 (Table 39), 7 (Table 40), 11 (Tables 61, 65); control fraction 16/20 (Table 61), else 100%; assay type: in vivo, mouse
Experimental: A portion of a commercially available sample of amantadine was recrystallized from isopropanol. The activity of the material against Influenza B Mass. was tested for the sample as obtained, the recrystallized portion, and the mother liquor obtained from recrystallizing the portion.

[4] = system: Influenza, Ann Arbor virus; test: Influenza Ann Arbor in mice, subcutaneous; late read day 9 (Table 11), 7 (Tables 12, 14), 5 (Table 13); assay type: in vivo, mouse; conditions: total dose .05 μg

Question: Which “effect on pox formation on the membrane” value (Vaccinia virus) does the source give for `NNC(N)=O` [semicarbazide] here?
Answer: No effect

Question: What about the animals survived (Herpes virus [1]; mouse, in vivo) of the same compound?
Answer: 20 to 30%

Question: And the animals protected (Herpes virus [1]; no pre-treatment, one dose level)?
Answer: 50%

Question: And the “No. animals surviving after 6-9 days” value (Herpes virus [1]; total dose 5 μg)?
Answer: 7

Question: And the “No. animals surviving after 6-9 days” value (Herpes virus [1]; total dose .00005 μg)?
Answer: 5

Question: What about the “No. animals surviving when 100% (or given fraction) of controls are dead” value (Herpes virus [1]; total dose .00005 μg) of the same compound?
Answer: 5

Question: What about the “No. animals surviving when 100% (or given fraction) of controls are dead” value (Herpes virus [1]; total dose .0005 μg) of the same compound?
Answer: 0

Question: And the “No. animals surviving after 6-9 days” value (Herpes virus [1]; total dose .05 μg)?
Answer: 5

Question: What about the Survivors (Influenza PR 8 virus; total dose .000005 μg) of the same compound?
Answer: 0

Question: And the “No. animals surviving when 100% (or given fraction) of controls are dead” value (Influenza PR 8 virus; total dose .00005 μg)?
Answer: 0

Question: What about the Survivors (Influenza PR 8 virus; total dose .00005 μg) of the same compound?
Answer: 0

Question: And the “No. animals surviving when 100% (or given fraction) of controls are dead” value (Influenza PR 8 virus; total dose .0005 μg)?
Answer: 0

Question: And the Survivors (Influenza PR 8 virus; total dose .0005 μg)?
Answer: 0

Question: What about the “No. animals surviving when 100% (or given fraction) of controls are dead” value (Influenza PR 8 virus; total dose .005 μg) of the same compound?
Answer: 0

Question: And the Survivors (Influenza PR 8 virus; total dose .005 μg)?
Answer: 0

Question: And the “No. dying 5-22 day” value (Herpes virus [2]; 2 μg)?
Answer: 0

Question: What about the “No. living longer than controls” value (Herpes virus [2]; 2 μg) of the same compound?
Answer: 0

Question: What about the “Total deaths, 4th day” value (Herpes virus [2]; 2 μg) of the same compound?
Answer: 10

Question: And the “Deaths on day 2” value (Herpes virus [2]; 20 μg)?
Answer: 1

Question: And the “Deaths on day 3” value (Herpes virus [2]; 20 μg)?
Answer: 5

Question: And the “No. dying 5-22 day” value (Herpes virus [2]; 20 μg)?
Answer: 0

Question: And the “No. living longer than controls” value (Herpes virus [2]; 20 μg)?
Answer: 1

Question: And the “Total deaths, 4th day” value (Herpes virus [2]; 20 μg)?
Answer: 11

Question: What about the “Deaths on day 1” value (Herpes virus [2]; .00005 μg) of the same compound?
Answer: 4

Question: What about the “Deaths on day 3” value (Herpes virus [2]; .00005 μg) of the same compound?
Answer: 4

Question: And the “No. dying 5-22 day” value (Herpes virus [2]; .00005 μg)?
Answer: 1

Question: And the “No. living longer than controls” value (Herpes virus [2]; .00005 μg)?
Answer: 1

Question: And the “Total deaths, 4th day” value (Herpes virus [2]; .00005 μg)?
Answer: 11

Question: What about the “Deaths on day 3” value (Herpes virus [2]; .0005 μg) of the same compound?
Answer: 6

Question: And the “Deaths on day 4” value (Herpes virus [2]; .0005 μg)?
Answer: 1

Question: And the “No. dying 5-22 day” value (Herpes virus [2]; .0005 μg)?
Answer: 0

Question: And the No. hatched (Herpes virus [2]; .0005 μg)?
Answer: 1

Question: And the “No. living longer than controls” value (Herpes virus [2]; .0005 μg)?
Answer: 1

Question: And the “Total deaths, 4th day” value (Herpes virus [2]; .0005 μg)?
Answer: 11

Question: And the No. hatched (Herpes virus [2]; .005 μg)?
Answer: 1

Question: What about the “No. living longer than controls” value (Herpes virus [2]; .005 μg) of the same compound?
Answer: 4

Question: And the “Total deaths, 4th day” value (Herpes virus [2]; .005 μg)?
Answer: 7

Question: What about the “Deaths on day 1” value (Herpes virus [2]; .05 μg) of the same compound?
Answer: 1

Question: What about the “Deaths on day 2” value (Herpes virus [2]; .05 μg) of the same compound?
Answer: 4

Question: And the “Deaths on day 3” value (Herpes virus [2]; .05 μg)?
Answer: 6

Question: And the “No. dying 5-22 day” value (Herpes virus [2]; .05 μg)?
Answer: 0

Question: And the “No. living longer than controls” value (Herpes virus [2]; .05 μg)?
Answer: 1

Question: And the “Total deaths, 4th day” value (Herpes virus [2]; .05 μg)?
Answer: 11

Question: And the “Deaths on day 3” value (Herpes virus [2]; .5 μg)?
Answer: 5

Question: And the “Total deaths, 4th day” value (Herpes virus [2]; .5 μg)?
Answer: 9

Question: What about the “Total no. living longer than controls” value (Herpes virus [2]; all doses) of the same compound?
Answer: 10

Question: What about the “No. animals surviving when 100% (Table 61: 16/20) of controls are dead” value ([3]; total dose .000005 μg (5 pg)) of the same compound?
Answer: 0

Question: What about the Survivors ([3]; total dose .000005 μg (5 pg)) of the same compound?
Answer: 0

Question: And the “No. animals surviving when 100% (Table 61: 16/20) of controls are dead” value ([3]; total dose .00005 μg (50 pg))?
Answer: 0

Question: What about the Survivors ([3]; total dose .00005 μg (50 pg)) of the same compound?
Answer: 0

Question: What about the “No. animals surviving when 100% (Table 61: 16/20) of controls are dead” value ([3]; total dose .0005 μg (500 pg)) of the same compound?
Answer: 1

Question: And the Survivors ([3]; total dose .0005 μg (500 pg))?
Answer: 0

Question: What about the “No. animals surviving after 5 days (Table 61: 11 days)” value ([3]; total dose .005 μg (5 ng)) of the same compound?
Answer: 6

Question: And the “No. animals surviving when 100% (Table 61: 16/20) of controls are dead” value ([3]; total dose .005 μg (5 ng))?
Answer: 3

Question: What about the Survivors ([3]; total dose .005 μg (5 ng)) of the same compound?
Answer: 0

Question: And the “No. animals surviving after 5 days (Table 61: 11 days)” value ([3]; total dose .05 μg (50 ng))?
Answer: 6

Question: What about the “No. animals surviving when 100% (Table 61: 16/20) of controls are dead” value ([3]; total dose .05 μg (50 ng)) of the same compound?
Answer: 1

Question: And the Survivors ([3]; total dose .05 μg (50 ng))?
Answer: 0

Question: And the “No. animals surviving when 100% (Table 61: 16/20) of controls are dead” value ([3]; total dose .5 μg (500 ng))?
Answer: 1

Question: And the Survivors ([3]; total dose .5 μg (500 ng))?
Answer: 0

Question: And the “No. animals surviving after 5-9 days” value [4]?
Answer: 0
